In patent US10800752B2, “Substituted naphtho[2,3-b]furans as water-soluble prodrugs for preventing and/or treating cancer” (BOSTON BIOMEDICAL, INC., priority 2015, dated 2020):
Where a name gives a salt, the structure may show the parent alone.

Tests used:
[1] = Evaluation of a conversion rate to 2-acetylnaphtho[2,3-b]furan-4,9-dione in human plasma; assay type: in vitro ADME; details: Human plasma, 1 umol/L, 37° C., incubation time 120 min
Description: (§1) For test compounds, the decrease rate of the test compounds and the conversion rate thereof to 2-acetylnaphtho[2,3-b]furan-4,9-dione in human plasma, CD1 mouse plasma, and pH 7.4 phosphate buffer solution were measured.
(§2) Test compounds were incubated at the concentration of 1 umol/L in human plasma (cat. no. 12250210, COSMO BIO), CD1 mouse plasma (cat. no. AP3054, KAC), and phosphate buffer solution at 37° C., and removed at predetermined times (0, 5, 10, 30, 60, and 120 minutes). After protein-removing treatment was performed, they are analyzed with LC-MS. It should be noted that the protein-removing treatment used acetonitrile containing: 10% volume of 1 mol/L hydrochloric acid; 1% volume of 46% citric acid; and phenytoin as an internal standard.
(§3) The measurement condition of LC-MS is as described below. LC-MS condition column: Kinetex 2.6 u PFP 100 A 50×2.1 mm Column temperature: 40° C.
(§4) Mobile phase: A: 0.1% formic acid-containing water
(§5) • B: 0.1% formic acid-containing acetonitrile A/B(min): 95/5(0)→5/95(3)→5/95(4)→95/5(4.1)→95/5(6) Flow rate: 0.4 mL/min Detection: ESI (positive mode) Injection volume: 10 uL
In the same way as Example 6, the incubation time was set as 120 minutes later, and the conversion rate of each of various test compounds to 2-acetylnaphtho[2,3-b]furan-4,9-dione in human plasma, CD1 mouse plasma, and pH 7.4 phosphate buffer solution was measured.

Solubility test = details: 50 mmol/L glycine buffer solution (pH 2.0), room temperature, 24 hours shaking
Description: A water-soluble prodrug was added into 50 mmol/L glycine buffer solution (pH 2.0). After shaking at room temperature for 24 hours, the mixture was filtered through a membrane filter, and then the filtrate was measured with HPLC.
The measurement condition of HPLC is as described below. HPLC condition column: Acquity UPLC BEH C18, 1.7 um, 50×2.1 mm
Mobile phase: A: 0.1% trifluoroacetic acid-containing water

[2] = Evaluation of a conversion rate to 2-acetylnaphtho[2,3-b]furan-4,9-dione in pH 7.4 phosphate buffer solution; assay type: physicochemical; details: Phosphate buffer solution (pH 7.4), 1 umol/L, 37° C., incubation time 120 min
Description: as §1, §2, §3, §4, §5
Measurement values are calculated from the peak area ratio in LC-MS between an internal standard material, phenytoin and an active form, 2-acetylnaphtho[2,3-b]furan-4,9-dione, and are expressed in %.
In the same way as Example 6, the incubation time was set as 120 minutes later, and the conversion rate of each of various test compounds to 2-acetylnaphtho[2,3-b]furan-4,9-dione in human plasma, CD1 mouse plasma, and pH 7.4 phosphate buffer solution was measured. A series of the present compounds were confirmed to be converted to 2-acetylnaphtho[2,3-b]furan-4,9-dione in pH 7.4 phosphate buffer solution in addition to human plasma and CD1 mouse plasma. Therefore, a series of the test compounds of the present invention were confirmed to be converted to the activated form via a route other than an enzymatic conversion.

SMILES	% Measurement value (conversion rate to 2-acetylnaphtho[2,3-b]furan-4,9-dione) [1] [%]	Solubility in pH 2.0 buffer solution (Solubility test) [mg/mL]	% Measurement value (conversion rate to 2-acetylnaphtho[2,3-b]furan-4,9-dione) [2] [%]
CC(=O)c1cc2c(OC(=O)NCCNCCCC(=O)O)c3ccccc3c(OC(=O)NCCNCCCC(=O)O)c2o1.Cl.Cl [Example 42]	69	>5.0	54
CC(=O)c1cc2c(OC(=O)NCCNCCF)c3ccccc3c(OC(=O)NCCNCCF)c2o1.Cl.Cl [Example 43]	81	>5.0	63
CC(=O)c1cc2c(OC(=O)NCCNCC(F)(F)F)c3ccccc3c(OC(=O)NCCNCC(F)(F)F)c2o1.Cl.Cl [Example 45]	84	>5.0	48
CC(=O)c1cc2c(OC(=O)NCCNCCN)c3ccccc3c(OC(=O)NCCNCCN)c2o1.Cl.Cl [Example 46]	59	>5.0	54
COC(=O)CNCCCNC(=O)Oc1c2ccccc2c(OC(=O)NCCCNCC(=O)OC)c2oc(C(C)=O)cc12.Cl.Cl [Example 47]	92	>5.0	65
CC(=O)c1cc2c(OC(=O)NC3CCNC3)c3ccccc3c(OC(=O)NC3CCNC3)c2o1.Cl.Cl (centres unmarked) [Example 48]	71	>5.0	59
CC(=O)c1cc2c(OC(=O)NC3CCCNC3)c3ccccc3c(OC(=O)NC3CCCNC3)c2o1.Cl.Cl (centres unmarked) [Example 49]	77	>5.0	58
CC(=O)c1cc2c(OC(=O)NCCNC(C)C(=O)O)c3ccccc3c(OC(=O)NCCNC(C)C(=O)O)c2o1.Cl.Cl (centres unmarked) [Example 50]	96	0.1	61
CCC(NCCNC(=O)Oc1c2ccccc2c(OC(=O)NCCNC(CC)C(=O)O)c2oc(C(C)=O)cc12)C(=O)O.Cl.Cl (centres unmarked) [Example 51]	70	0.1	55
CC(=O)c1cc2c(OC(=O)NCCCNCCN)c3ccccc3c(OC(=O)NCCCNCCN)c2o1.Cl.Cl [Example 52]	78	>5.0	55
CC(=O)c1cc2c(OC(=O)NCCCNCC(F)(F)F)c3ccccc3c(OC(=O)NCCCNCC(F)(F)F)c2o1.Cl.Cl [Example 53]	100	>5.0	41
CC(=O)c1cc2c(OC(=O)NCCNCc3ccccc3)c3ccccc3c(OC(=O)NCCNCc3ccccc3)c2o1.Cl.Cl [Example 55]	86	>5.0	63
CC(=O)c1cc2c(OC(=O)NCCNCCS(=O)(=O)N3CCCCC3)c3ccccc3c(OC(=O)NCCNCCS(=O)(=O)N3CCCCC3)c2o1.Cl.Cl [Example 56]	63	3.3	30
CC(=O)c1cc2c(OC(=O)NCCNCCS(=O)(=O)N(C)C)c3ccccc3c(OC(=O)NCCNCCS(=O)(=O)N(C)C)c2o1.Cl.Cl [Example 57]	68	>5.0	34
CC(=O)c1cc2c(OC(=O)NCCNCCS(=O)(=O)C(C)C)c3ccccc3c(OC(=O)NCCNCCS(=O)(=O)C(C)C)c2o1.Cl.Cl [Example 58]	81	1.5	40
CC(=O)c1cc2c(OC(=O)NCCCNCCS(=O)(=O)N(C)C)c3ccccc3c(OC(=O)NCCCNCCS(=O)(=O)N(C)C)c2o1.Cl.Cl [Example 59]	81	>5.0	66
CC(=O)c1cc2c(OC(=O)NCCCNCCS(C)(=O)=O)c3ccccc3c(OC(=O)NCCCNCCS(C)(=O)=O)c2o1.Cl.Cl [Example 60]	68	>5.0	39
CC(=O)c1cc2c(OC(=O)NCCNCCS(C)(=O)=O)c3ccccc3c(OC(=O)NCCNCCS(C)(=O)=O)c2o1.Cl.Cl [Example 61]	87	2.5	55
CC(=O)c1cc2c(OC(=O)NCCNCC(=O)N3CCC3)c3ccccc3c(OC(=O)NCCNCC(=O)N3CCC3)c2o1.Cl.Cl [Example 62]	65	>5.0	37
CC(=O)c1cc2c(OC(=O)NCCCNCC(=O)N3CCC3)c3ccccc3c(OC(=O)NCCCNCC(=O)N3CCC3)c2o1.Cl.Cl [Example 63]	59	>5.0	51
CC(=O)c1cc2c(OC(=O)NCCCNCC(=O)NCC(=O)O)c3ccccc3c(OC(=O)NCCCNCC(=O)NCC(=O)O)c2o1.Cl.Cl [Example 64]	57	>5.0	40
CC(=O)c1cc2c(OC(=O)NCCNCCOC(N)=O)c3ccccc3c(OC(=O)NCCNCCOC(N)=O)c2o1.Cl.Cl [Example 65]	81	>5.0	73
CC(=O)c1cc2c(OC(=O)NCCCNCCOC(N)=O)c3ccccc3c(OC(=O)NCCCNCCOC(N)=O)c2o1.Cl.Cl [Example 66]	59	>5.0	44
COC(=O)NCCNCCNC(=O)Oc1c2ccccc2c(OC(=O)NCCNCCNC(=O)OC)c2oc(C(C)=O)cc12.Cl.Cl [Example 67]	78	>5.0	60
COC(=O)NCCNCCCNC(=O)Oc1c2ccccc2c(OC(=O)NCCCNCCNC(=O)OC)c2oc(C(C)=O)cc12.Cl.Cl [Example 68]	73	>5.0	59
COC(=O)OCCNCCNC(=O)Oc1c2ccccc2c(OC(=O)NCCNCCOC(=O)OC)c2oc(C(C)=O)cc12.Cl.Cl [Example 69]	90	>5.0	71
COC(=O)OCCNCCCNC(=O)Oc1c2ccccc2c(OC(=O)NCCCNCCOC(=O)OC)c2oc(C(C)=O)cc12.Cl.Cl [Example 70]	66	>5.0	48
COC(=O)[C@@H](N)CCNC(=O)Oc1c2ccccc2c(OC(=O)NCC[C@H](N)C(=O)OC)c2oc(C(C)=O)cc12 [Example 108, Dimethyl 4,4′-((((2-acetylnaphtho[2,3-b]furan-4,9-diyl)bis(oxy))bis(carbonyl))bis(azanediyl))(2S,2′S)-bis(2-aminobutanoate)ditrifluoroacetate salt]		>5.0	44
